Where two headings read alike, the source gives them in different places.
Tests used:
SGLT2 = target: T1, SGLT2 (Homo sapiens, UniProt P31639); assay: SGLT2 inhibition, 2-NBDG glucose uptake in SGLT2-overexpressing TSA201 cells; assay type: cell-based; conditions: for SGLT2 inhibition (in words): TSA201 cells, up to 1000 µM; for factor by which the 2-naphthyl derivative is the stronger inhibitor of SGLT2: comparisons 21a–21b and 24a–24b
T1 construct: host or cells: TSA201 (Human Embryonal Kidney) cells, lentiviral transduction, puromycin selection
T1 sequence (P31639 1-672): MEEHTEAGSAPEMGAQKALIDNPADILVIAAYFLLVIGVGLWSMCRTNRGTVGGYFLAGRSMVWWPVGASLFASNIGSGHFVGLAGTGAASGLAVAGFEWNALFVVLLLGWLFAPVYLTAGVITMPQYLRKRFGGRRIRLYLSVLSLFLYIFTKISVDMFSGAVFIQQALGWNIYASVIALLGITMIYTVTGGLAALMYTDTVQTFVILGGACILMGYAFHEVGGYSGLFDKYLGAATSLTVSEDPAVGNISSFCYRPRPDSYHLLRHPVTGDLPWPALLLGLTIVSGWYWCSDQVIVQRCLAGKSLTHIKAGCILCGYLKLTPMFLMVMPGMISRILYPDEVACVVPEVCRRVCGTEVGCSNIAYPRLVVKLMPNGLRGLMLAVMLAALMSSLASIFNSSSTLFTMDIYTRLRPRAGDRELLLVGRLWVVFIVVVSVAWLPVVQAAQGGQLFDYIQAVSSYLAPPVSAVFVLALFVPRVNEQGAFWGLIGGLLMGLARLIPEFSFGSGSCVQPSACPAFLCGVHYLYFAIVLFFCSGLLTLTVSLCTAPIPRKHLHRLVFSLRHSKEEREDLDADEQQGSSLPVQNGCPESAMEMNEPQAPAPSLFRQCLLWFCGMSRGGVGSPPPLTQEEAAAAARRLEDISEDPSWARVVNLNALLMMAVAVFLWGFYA
Method: (§1) Cells (100,000 cells, TSA201) were plated into each well of a 24-well plate and incubated overnight at 37 °C. […] Two wells were treated only with hexadimetrine bromide as a control. After 24 h of transfection, the medium was changed to fresh medium without antibiotics. Cells were collected and transferred into T-25 flasks after 3 days. On the fifth day, 10 µg/mL puromycin was added to select only the transfected cells. The nontransfected cells cannot survive this high concentration of antibiotic. To keep up the selection, the medium including 10 µg/mL puromycin was replaced every two days. The cells lived under puromycin pressure until the day of the experiments.
(§2) TSA201 cells (25,000) with and without overexpressed SGLT1 or 2 were put into poly-L-lysine (P5999, Sigma-Aldrich, St. Luis, MO, USA) treated wells of a 96-well plate. The next day, the cells were starved for 1 h with 90 µL glucose-free medium (D5036-10X1L Sigma-Aldrich, St. Luis, MO, USA) (with or without inhibitor). After starving, cells were treated with 100 µM 2-NBDG and incubated for 30 min (again with or without inhibitor). The incubation time of cells with possible inhibitors was 90 min altogether. After incubation, the medium was removed, the wells were washed with PBS twice, lysed with 100 µL lysis buffer (0.1 M KH2PO4 + 1% Triton-x, pH = 11), and stored at -20°C. […] Subsequently, the protein concentration was measured and NBDG uptake was normalized to protein amount.
(§3) After selecting optimal concentrations, each compound was tested at four different concentrations. […] To determine the specific effects of the compounds on SGLT1 or 2, the glucose uptake values in TSA201 cells without SGLT overexpression were subtracted from the values in TSA201 cell overexpressing SGLT. […] All calculations were prepared using the GraphPad Prism software (GraphPad Software, Inc., SanDiego, CA, USA). The data were plotted on a logarithmic scale as a function of inhibitor concentration. The IC50 values were calculated by non-linear regression analysis from sigmoidal dose-response curves. The results of kinetic experiments were calculated from at least three independent experiments. Each experiment contained four parallel samples that were averaged. The standard deviations were calculated based on the average values for the independent experiments.

SGLT1 = target: T2, SGLT1 (Homo sapiens, UniProt P13866); assay: SGLT1 inhibition, 2-NBDG glucose uptake in SGLT1-overexpressing TSA201 cells; assay type: cell-based
T2 construct: host or cells: TSA201 (Human Embryonal Kidney) cells, lentiviral transduction, puromycin selection
T2 sequence (P13866 1-664): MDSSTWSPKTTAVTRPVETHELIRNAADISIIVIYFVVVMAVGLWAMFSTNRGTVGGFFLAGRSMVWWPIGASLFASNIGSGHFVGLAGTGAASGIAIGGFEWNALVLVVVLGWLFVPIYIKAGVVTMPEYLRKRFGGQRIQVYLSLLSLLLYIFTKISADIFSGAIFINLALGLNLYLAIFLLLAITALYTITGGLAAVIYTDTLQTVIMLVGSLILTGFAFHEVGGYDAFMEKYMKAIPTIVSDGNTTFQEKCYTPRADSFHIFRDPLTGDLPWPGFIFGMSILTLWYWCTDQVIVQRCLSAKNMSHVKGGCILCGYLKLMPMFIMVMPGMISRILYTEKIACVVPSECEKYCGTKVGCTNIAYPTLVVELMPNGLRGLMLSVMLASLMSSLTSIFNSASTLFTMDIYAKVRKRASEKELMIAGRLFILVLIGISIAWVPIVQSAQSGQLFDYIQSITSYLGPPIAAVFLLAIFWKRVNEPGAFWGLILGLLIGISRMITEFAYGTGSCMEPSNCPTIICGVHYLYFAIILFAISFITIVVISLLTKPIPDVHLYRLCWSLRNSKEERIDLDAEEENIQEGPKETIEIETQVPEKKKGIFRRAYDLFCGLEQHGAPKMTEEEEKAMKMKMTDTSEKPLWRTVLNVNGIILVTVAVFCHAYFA
Method: as §1, §2, §3

[1] = target: T3, rabbit muscle glycogen phosphorylase b (rmGPb) (Oryctolagus cuniculus, UniProt P00489); assay: Glycogen phosphorylase b enzyme kinetic inhibition assay (direction of glycogen synthesis); assay type: biochemical
T3 construct: Glycogen phosphorylase b was isolated from rabbit skeletal muscle; from tissue; host or cells: rabbit skeletal muscle
T3 sequence (P00489 1-843): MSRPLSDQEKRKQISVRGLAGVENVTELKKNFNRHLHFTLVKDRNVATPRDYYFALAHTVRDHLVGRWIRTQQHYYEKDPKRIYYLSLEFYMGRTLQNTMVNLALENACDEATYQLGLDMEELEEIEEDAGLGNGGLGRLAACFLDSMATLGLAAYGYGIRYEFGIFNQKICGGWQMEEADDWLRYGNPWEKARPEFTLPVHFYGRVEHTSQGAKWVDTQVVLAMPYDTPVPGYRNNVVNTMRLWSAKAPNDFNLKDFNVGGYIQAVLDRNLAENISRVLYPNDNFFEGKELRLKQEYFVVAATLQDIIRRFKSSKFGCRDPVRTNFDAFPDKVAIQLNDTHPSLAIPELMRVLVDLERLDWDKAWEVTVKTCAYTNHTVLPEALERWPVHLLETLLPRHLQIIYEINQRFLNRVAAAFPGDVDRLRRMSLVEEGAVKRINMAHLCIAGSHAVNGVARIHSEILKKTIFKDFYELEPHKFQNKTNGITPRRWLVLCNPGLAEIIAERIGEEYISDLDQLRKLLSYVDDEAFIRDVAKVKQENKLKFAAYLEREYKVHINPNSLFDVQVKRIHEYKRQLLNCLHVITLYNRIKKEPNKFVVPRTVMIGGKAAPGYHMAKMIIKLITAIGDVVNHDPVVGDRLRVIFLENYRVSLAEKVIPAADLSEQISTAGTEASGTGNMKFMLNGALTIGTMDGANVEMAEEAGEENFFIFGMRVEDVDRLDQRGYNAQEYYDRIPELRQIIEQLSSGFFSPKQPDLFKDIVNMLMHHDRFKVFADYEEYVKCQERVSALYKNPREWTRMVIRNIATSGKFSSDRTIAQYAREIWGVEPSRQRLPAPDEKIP
Source text: The 2-NBDG (2-deoxy-2-[(7-nitro-2,1,3-benzoxadiazol-4-yl)amino]-D-glucose, cat. 11046) was purchased from Cayman Chemical Company (Ann Arbor, MI, USA). Lentivirus for SLC5A1 and SLC5A2 (NM_000343 for SGLT1, and NM-003041 for SGLT2) were obtained from Origene (Rockville, MD, USA). These expression vectors contain a puromycin resistance gene. […] CyQUANT^TM Cell Proliferation Assay Kit (2036547) was from Invitrogen (Carlsbad, CA, USA). Glycogen phosphorylase b was isolated from rabbit skeletal muscle according to the method of Fischer and Krebs.
Enzyme activity in the direction of glycogen synthesis was assayed. Kinetic data were collected using the muscle phosphorylase b (dephosphorylated, GPb) isoform. […] Enzymatic activities were presented in the form of a double-reciprocal plot (Lineweaver-Burk). The plots were analysed by a non-linear data analysis program. The inhibitor constants (Ki) were determined by secondary plots, replotting the slopes from the Lineweaver-Burk plot against the inhibitor concentrations. The means of standard errors for all calculated kinetic parameters averaged to less than 10% [78, 79].

[2] = Table 2, NI: no inhibition at 625 µM
[3] = Table 3, TSA-201 cells, NI: no inhibition at 1000 µM
[4] = Table 2, TSA-201 cells, NI: no inhibition at 1000 µM, compounds 1-2 used as controls for in-house assay

Compound	SGLT2 inhibition (in words) (SGLT2)	IC50 [1, 2] [µM]	IC50 (SGLT2; [3]) [µM]	IC50 (SGLT1; [3]) [µM]	other results
OC[C@H]1O[C@@H](c2nccc(Cc3ccccc3)n2)[C@H](O)[C@@H](O)[C@@H]1O [16a, 4-Benzyl-2-(β-D-glucopyranosyl)pyrimidine]	inhibitory activity in the micromolar range	> 625	–	–	IC50 (SGLT2): 17 ± 3.16 µM; IC50 (SGLT1): 18 ± 3.92 µM
CCOc1ccc(Cc2cc([C@@H]3O[C@H](CO)[C@@H](O)[C@H](O)[C@H]3O)ccc2Cl)cc1 [compound 2, dapagliflozin, reference compound]	–	–	–	–	IC50 [1]: > 625 µM
OC[C@H]1O[C@@H](n2cc(-c3ccc4ccccc4c3)nn2)[C@H](O)[C@@H](O)[C@@H]1O [21b]	–	–	10.3 ± 2.18	127 ± 21.6	factor by which the 2-naphthyl derivative is the stronger inhibitor of SGLT2 (SGLT2): ~ 7
OC[C@H]1O[C@@H](c2nc(-c3ccc4ccccc4c3)c[nH]2)[C@H](O)[C@@H](O)[C@@H]1O [24b, 2-(β-D-glucopyranosyl)-4(5)-(2-naphthyl)-imidazole]	–	–	3.5 ± 0.88	11.9 ± 2.61	factor by which the 2-naphthyl derivative is the stronger inhibitor of SGLT2 (SGLT2): ~ 26
OC[C@H]1O[C@@H](c2nc(Cc3ccccc3)n[nH]2)[C@H](O)[C@@H](O)[C@@H]1O [19a]	–	> 625	–	–	IC50 (SGLT2): 71.7 ± 10.6 µM; fold weakening in the SGLT2 inhibition (SGLT2; 19a vs. 10a and 13a): 20-30 fold; IC50 (SGLT1): 19.6 ± 7.26 µM
COc1ccc(Cc2nc([C@@H]3O[C@H](CO)[C@@H](O)[C@H](O)[C@H]3O)no2)cc1 [10b, 3-(β-D-Glucopyranosyl)-5-(4-methoxybenzyl)-1,2,4-oxadiazole]	complete loss of the inhibition	> 625	–	–	IC50 (SGLT2; [4]): > 1000 µM; IC50 (SGLT1; [4]): > 1000 µM
COc1ccc(Cc2nnc([C@@H]3O[C@H](CO)[C@@H](O)[C@H](O)[C@H]3O)o2)cc1 [13b, 2-(β-D-Glucopyranosyl)-5-(4-methoxybenzyl)-1,3,4-oxadiazole]	complete loss of the inhibition	> 625	–	–	IC50 (SGLT2; [4]): > 1000 µM; IC50 (SGLT1; [4]): > 1000 µM
OC[C@H]1O[C@@H](n2cc(-c3ccccc3)nn2)[C@H](O)[C@@H](O)[C@@H]1O [21a]	–	–	67.3 ± 10.9	167 ± 63.5	–
OC[C@H]1O[C@@H](c2nc(-c3ccccc3)c[nH]2)[C@H](O)[C@@H](O)[C@@H]1O [24a]	–	–	91.04 ± 0.56	245 ± 42	–

Now from value to compound, other results behind:

SGLT2 inhibition (in words) (SGLT2)	IC50 [1, 2] [µM]	IC50 (SGLT2; [3]) [µM]	IC50 (SGLT1; [3]) [µM]	Compound	other results
showed inhibitory effects	> 625	–	–	OC[C@H]1O[C@@H](c2noc(Cc3ccccc3)n2)[C@H](O)[C@@H](O)[C@@H]1O [10a, 5-Benzyl-3-(β-D-glucopyranosyl)-1,2,4-oxadiazole]	IC50 (SGLT2): 3.68 ± 0.59 µM; IC50 (SGLT1): 20.7 ± 7.66 µM
–	–	> 1000	> 1000	OC[C@H]1O[C@@H](c2nc(-c3ccc4ccccc4c3)cs2)[C@H](O)[C@@H](O)[C@@H]1O [23b]	–
complete loss of the inhibition	> 625	–	–	OCCn1nc([C@@H]2O[C@H](CO)[C@@H](O)[C@H](O)[C@H]2O)nc1Cc1ccccc1 [19b]	IC50 (SGLT2; [4]): > 1000 µM; IC50 (SGLT1; [4]): > 1000 µM
